Reference: US20130109682A1, “CYCLIC ETHER COMPOUNDS USEFUL AS KINASE INHIBITORS” (NOVARTIS AG, priority 2010, published 2013)
Read-outs that look alike come from different tables or passages of the source.

Legend:
Assay type in all cases: biochemical
FLT3D835Y kinase = molecular target: T1, FLT3D835Y kinase (Homo sapiens, UniProt P36888, D835Y); assay: FLT3D835Y kinase inhibition assay (LanthaScreen TR-FRET); conditions: read-out: FLT3 IC50
T1 sequence (P36888 27-993 D835Y): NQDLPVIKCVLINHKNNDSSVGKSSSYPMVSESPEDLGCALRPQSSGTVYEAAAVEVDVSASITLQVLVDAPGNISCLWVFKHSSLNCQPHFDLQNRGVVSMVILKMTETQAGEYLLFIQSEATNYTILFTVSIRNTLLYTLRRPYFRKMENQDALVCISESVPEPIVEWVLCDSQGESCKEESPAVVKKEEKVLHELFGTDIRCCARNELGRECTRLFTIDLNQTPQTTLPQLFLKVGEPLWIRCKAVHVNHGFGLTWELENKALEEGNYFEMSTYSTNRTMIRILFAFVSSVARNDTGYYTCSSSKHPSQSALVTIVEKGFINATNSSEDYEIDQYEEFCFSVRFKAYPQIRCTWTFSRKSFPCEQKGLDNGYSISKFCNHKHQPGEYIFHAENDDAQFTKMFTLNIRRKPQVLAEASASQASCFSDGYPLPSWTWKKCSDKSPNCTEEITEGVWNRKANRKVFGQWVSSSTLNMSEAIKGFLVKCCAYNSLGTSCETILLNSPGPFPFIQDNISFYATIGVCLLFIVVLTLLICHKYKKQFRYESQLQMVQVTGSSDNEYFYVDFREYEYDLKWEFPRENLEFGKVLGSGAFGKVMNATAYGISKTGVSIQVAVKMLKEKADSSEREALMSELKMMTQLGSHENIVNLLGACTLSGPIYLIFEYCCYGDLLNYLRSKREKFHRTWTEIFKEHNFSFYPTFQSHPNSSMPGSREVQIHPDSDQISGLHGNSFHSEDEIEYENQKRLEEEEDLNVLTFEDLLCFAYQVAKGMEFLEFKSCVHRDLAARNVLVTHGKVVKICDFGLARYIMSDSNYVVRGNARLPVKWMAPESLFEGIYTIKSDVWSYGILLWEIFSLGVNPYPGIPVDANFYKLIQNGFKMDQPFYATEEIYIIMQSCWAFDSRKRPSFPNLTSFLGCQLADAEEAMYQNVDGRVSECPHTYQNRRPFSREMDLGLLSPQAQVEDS
Experimental: FLT3D835Y Kinase Inhibition Assay
LanthaScreen™ is the detection of Time-Resolved Fluorescence Resonance Energy Transfer (TR-FRET) using lanthanide chelates to measure interactions between various binding partners. The application of TR-FRET to assay kinase activity was first described by Mathis (1995). A TR-FRET assay was used to measure FLT3D835Y kinase inhibitory activity. The assay panel was run on a Biomek FX liquid handling workstations. To the assay plates containing […] compound or control solutions, 4.5 μL of buffer A (50 mM TRIS-HCl pH 7.4, 2 mM DTT, 0.02% Tween 20, 0.02 mM Na3VO4, H2O nanpure) including a generic concentration of ATP (2 μM f.c.) was added per well, followed by […] of buffer B (4 uM ATP in Buffer A) including a generic concentration of polyEAY (50 nM f.c.), FLT3D835Y kinase, and divalent cations. Final concentration of kinase and cations were: [FLT3D835Y kinase]=5.7 nM, [Mg]=3 mM, [Mn]=3 mM. After 1 hour of incubation the kinase reactions were stopped by the addition of 4.5 μL of stop solution D (50 mM EDTA, 20 mM TRIS-HCl pH 7.4, 0.04% NP-40) immediately followed by 4.5 μL of buffer A (50 mM TRIS-HCl pH 7.4, 2 mM DTT, 0.02% Tween 20, 0.02 mM Na3VO4, H2O nanpure) including the Tb-labeled P-20 antibody to give a total detection volume of […]. After an incubation time of 45 min in the dark, the plates were transferred into the Pherastar fluorescence reader for counting. The effect of compound on the enzymatic activity was obtained from the linear progress curves and determined from one reading (end point measurement).

GSK3β = GSK3β (Homo sapiens, UniProt P49841); assay: GSK3β ATP depletion assay; conditions: read-out: GSK3b IC50
In short: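 Human GSK3β (5 nM) preincubated 15 min with 10 μM biotinylated phospho-CREB peptide in pH 7.5 Tris buffer (15 mM MgCl2, 1 mM DTT, 0.1% BSA, 2.5% DMSO). Reaction started with 2 μM ATP and run to about 50% ATP depletion. Remaining ATP measured by KinaseGlo luminescence.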

PKCα = PKCα (Homo sapiens, UniProt P17252); assay: PKCα kinase Caliper assay; conditions: read-out: PKC IC50
Experimental: PKCα and cABLT315 Kinase Caliper Assays
Assays were performed in 384 well microtiter plates. Each assay plate contained 8-point serial dilutions for test compounds, as well as two 16-point serial dilutions of staurosporine as reference compound, plus 16 high- and 16 low controls. Liquid handling and incubation steps were done on a Thermo CatX workstation equipped with a Innovadyne Nanodrop Express. Between pipetting steps, tips were cleaned in wash cycles using wash buffer. Plates with terminated kinase reactions were transferred to the Caliper LC3000 workstations for reading. Phosphorylated and unphosphorylated peptides were separated using the Caliper microfluidic mobilitishift technology and Kinase activities were calculated from the amounts of formed phospho-peptide.
1. 0.05 μA Compound (start with 1.8 mM in 90% DMSO/10% H2O)
2. +4.5 μl 2× peptide/ATP solution
3. +4.5 μl 2× enzyme solution
4. Incubate for 60 min at 30° C.
4. +16 μl stop/run buffer
Independent of the kinase, all reactions were done performed in 50 mM HEPES, pH 7.5, 1 mM DTT, 0.02% Tween20, 0.02% BSA, and 0.6% DMSO.

GSK3β, sequence (P49841 whole entry, species assumed): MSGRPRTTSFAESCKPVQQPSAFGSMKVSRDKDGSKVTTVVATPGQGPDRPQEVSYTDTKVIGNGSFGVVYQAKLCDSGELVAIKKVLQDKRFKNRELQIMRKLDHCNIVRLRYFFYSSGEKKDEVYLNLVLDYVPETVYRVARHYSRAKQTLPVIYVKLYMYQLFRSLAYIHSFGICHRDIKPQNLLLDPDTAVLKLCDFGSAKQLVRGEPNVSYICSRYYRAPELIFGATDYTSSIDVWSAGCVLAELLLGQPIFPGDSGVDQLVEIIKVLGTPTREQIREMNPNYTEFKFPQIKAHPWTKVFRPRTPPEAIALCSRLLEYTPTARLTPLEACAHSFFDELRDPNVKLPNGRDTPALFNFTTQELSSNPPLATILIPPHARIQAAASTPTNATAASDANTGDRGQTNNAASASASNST

Compound	IC50 (FLT3D835Y kinase)	IC50 (GSK3β; ATP depletion assay)	IC50 (PKCα; PKCα Caliper assay)	IC50 (GSK3β)	IC50 (PKCα)
Nc1ncc(-c2ccccc2)nc1C(=O)Nc1cnccc1[C@@H]1C[C@H](O)[C@]2(O)CCC[C@@H]2O1 [Example 186, 3-amino-N-(4-((2S,4S,4aR,7aS)-4,4a-dihydroxyoctahydrocyclopenta[b]pyran-2-yl)pyridin-3-yl)-6-phenylpyrazine-2-carboxamide]	1600 nM	–	–	40 nM	760 nM
Nc1ncc(-c2ccccc2)nc1C(=O)Nc1cnccc1[C@H]1C[C@@H](O)[C@@]2(O)CCC[C@H]2O1 [Example 195, 3-amino-N-(4-((2R,4R,4aS,7aR)-4,4a-dihydroxyoctahydrocyclopenta[b]pyran-2-yl)pyridin-3-yl)-6-phenylpyrazine-2-carboxamide]	3.5 nM	–	–	1 nM	230 nM
O=C1CC[C@H]2O[C@@H](c3ccncc3NC(=O)c3ccc(F)c(-c4c(F)cccc4F)n3)C[C@@H](O)[C@@H]2N1 [Example 196, 6-(2,6-difluorophenyl)-5-fluoro-N-(4-((2R,4R,4aS,8aR)-4-hydroxy-6-oxooctahydro-2H-pyrano[3,2-b]pyridin-2-yl)pyridin-3-yl)picolinamide]	> 10000 nM	–	–	645 nM	> 10000 nM
Nc1ncc(-c2ccccc2)nc1C(=O)Nc1cnccc1[C@H]1C[C@@H](N)[C@H]2CCC[C@H]2O1 [Example 199, 3-amino-N-(4-((2R,4R,4aR,7aR)-4-aminooctahydrocyclopenta[b]pyran-2-yl)pyridin-3-yl)-6-phenylpyrazine-2-carboxamide]	1.8 nM	7.6 nM	31 nM	–	–
N[C@@H]1C[C@H](c2ccncc2NC(=O)c2ccc(F)c(-c3c(F)cccc3F)n2)O[C@@H]2CCC[C@]12O [Example 210, N-(4-((2R,4R,4aS,7aR)-4-amino-4a-hydroxyoctahydrocyclopenta[b]pyran-2-yl)pyridin-3-yl)-6-(2,6-difluorophenyl)-5-fluoropicolinamide]	4200 nM	–	–	290 nM	> 10000 nM
Nc1cnc(-c2c(F)cccc2F)nc1C(=O)Nc1cnccc1[C@H]1C[C@@H](N)[C@@]2(O)CCC[C@H]2O1 [Example 213, 5-amino-N-(4-((2R,4R,4aS,7aR)-4-amino-4a-hydroxyoctahydrocyclopenta[b]pyran-2-yl)pyridin-3-yl)-2-(2,6-difluorophenyl)pyrimidine-4-carboxamide]	3500 nM	–	–	558 nM	> 10000 nM
C[C@H]1O[C@@H](c2ccncc2NC(=O)c2ccc(F)c(-c3c(F)cccc3F)n2)C[C@@H](N)[C@]1(C)O [Example 219, N-(4-((2R,4R,5S,6R)-4-amino-5-hydroxy-5,6-dimethyltetrahydro-2H-pyran-2-yl)pyridin-3-yl)-6-(2,6-difluorophenyl)-5-fluoropicolinamide]	1700 nM	979 nM	> 10000 nM	–	–
N[C@@H]1C[C@H](c2ccncc2NC(=O)c2ccc(F)c(-c3c(F)cccc3F)n2)O[C@@H]2CCC[C@H]12 [Example 224, N-(4-((2R,4R,4aR,7aR)-4-aminooctahydrocyclopenta[b]pyran-2-yl)pyridin-3-yl)-6-(2,6-difluorophenyl)-5-fluoropicolinamide]	1600 nM	363 nM	> 10000 nM	–	–
N[C@H]1C[C@@H](c2ccncc2NC(=O)c2csc(-c3c(F)cccc3F)n2)O[C@H]2CCC[C@H]21 [Example 230, N-(4-((2S,4S,4aS,7aS)-4-aminooctahydrocyclopenta[b]pyran-2-yl)pyridin-3-yl)-2-(2,6-difluorophenyl)thiazole-4-carboxamide]	270 nM	4580 nM	1100 nM	–	–

Second part, the compound after the results:

IC50 (FLT3D835Y kinase)	IC50 (GSK3β; ATP depletion assay)	IC50 (PKCα; PKCα Caliper assay)	IC50 (GSK3β)	IC50 (PKCα)	Compound
1000 nM	670 nM	650 nM	–	–	Nc1ncc(-c2ccccc2)nc1C(=O)Nc1cnccc1[C@@H]1C[C@H](N)[C@]2(O)CCC[C@@H]2O1 [Example 185, 3-amino-N-(4-((2S,4S,4aR,7aS)-4-amino-4a-hydroxyoctahydrocyclopenta[b]pyran-2-yl)pyridin-3-yl)-6-phenylpyrazine-2-carboxamide]
1.7 nM	3.3 nM	50 nM	–	–	CC[C@]1(O)[C@H](N)C[C@H](c2ccncc2NC(=O)c2nc(-c3ccccc3)cnc2N)O[C@@H]1C [Example 187, 3-amino-N-(4-((2R,4R,5S,6R)-4-amino-5-ethyl-5-hydroxy-6-methyltetrahydro-2H-pyran-2-yl)pyridin-3-yl)-6-phenylpyrazine-2-carboxamide]
170 nM	71 nM	710 nM	–	–	CC[C@]1(O)[C@H](C)O[C@H](c2ccncc2NC(=O)c2nc(-c3ccccc3)cnc2N)C[C@@H]1N [Example 189, 3-amino-N-(4-((2S,4S,5R,6S)-4-amino-5-ethyl-5-hydroxy-6-methyltetrahydro-2H-pyran-2-yl)pyridin-3-yl)-6-phenylpyrazine-2-carboxamide]
1.4 nM	8 nM	41 nM	–	–	Nc1ncc(-c2ccccc2)nc1C(=O)Nc1cnccc1[C@H]1C[C@@H](N)[C@@]2(O)CCCC[C@H]2O1 [Example 197, 3-amino-N-(4-((2R,4R,4aS,8aR)-4-amino-4a-hydroxyoctahydro-2H-chromen-2-yl)pyridin-3-yl)-6-phenylpyrazine-2-carboxamide]
140 nM	6.4 nM	55 nM	–	–	CC(C)(C)[C@@H]1O[C@H](c2ccncc2NC(=O)c2nc(-c3ccccc3)cnc2N)C[C@@H](N)[C@H]1O [Example 227, 3-amino-N-(4-((2S,4R,5R,6S)-4-amino-6-tert-butyl-5-hydroxytetrahydro-2H-pyran-2-yl)pyridin-3-yl)-6-phenylpyrazine-2-carboxamide]
2.7 nM	13 nM	76 nM	–	–	C[C@H]1O[C@@H](c2ccncc2NC(=O)c2nc(-c3ccccc3)cnc2N)C[C@@H](N)[C@]1(C)O [Example 228, 3-amino-N-(4-((2R,4R,5S,6R)-4-amino-5-hydroxy-5,6-dimethyltetrahydro-2H-pyran-2-yl)pyridin-3-yl)-6-phenylpyrazine-2-carboxamide]
93 nM	39 nM	370 nM	–	–	C[C@@H]1O[C@H](c2ccncc2NC(=O)c2nc(-c3ccccc3)cnc2N)C[C@H](N)[C@@]1(C)O [Example 229, 3-amino-N-(4-((2S,4S,5R,6S)-4-amino-5-hydroxy-5,6-dimethyltetrahydro-2H-pyran-2-yl)pyridin-3-yl)-6-phenylpyrazine-2-carboxamide]
